Values of other authors as cited in US10087176B2, “3,5-dichloro,4-(3,4-(cyclo-)alkoxyphenyl)--2-carbonyloxy)ethyl)pyridine derivatives as PDE-4 inhibitors” (Chiesi Farmaceutici S.p.A., priority 2014, dated 2018).

Assays:
[1] = tested on: neutrophils and CXCL8 in sputum; settings: COPD patients, oral, given over 4 weeks
[2] = tested on: lung inflammation and emphysema; settings: smoking model of COPD in mice
[3] = patients with severe disease, frequent exacerbations and mucus hypersecretion

SMILES: O=C(Nc1c(Cl)cncc1Cl)c1ccc(OC(F)F)c(OCC2CC2)c1 [roflumilast]
- effect on CXCL8 concentrations in sputum [1]: significantly reduces
- reduction of numbers of neutrophils in sputum [1]: 36%
- effect on lung inflammation and emphysema [2]: inhibits lung inflammation and emphysema
- improvement of FEV 1 [3]: approximately 50 ml
- reduction of exacerbation [3]: about 15%
